In patent publication US20210045385A1, “PYRIDAZINONE-SUBSTITUTED KETOXIMES AS HERBICIDES” (FMC Corporation, priority 2018, published 2021):

Legend:
Assay type in all cases: in vivo
[1] = test system: foxtail, green (green foxtail, Setaria viridis); experiment: Test A preemergence, visual plant response rating; conditions: for Foxtail, Green plant response rating: 125 g ai/ha, preemergence, 0 to 100 scale, 0 no effect, 100 complete control; for Foxtail, Green plant response rating (0 to 100 scale): 500 g ai/ha Preemergence, approx. 10 days
Summary of the method: (§1)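 Preemergence: seeds in loam/sand blend given directed soil spray of compound in non-phytotoxic solvent with surfactant. Postemergence: plants 2–10 cm, one- to two-leaf stage, sprayed with same formulation. Visual injury rated vs untreated controls after ~10 days in greenhouse, 0 (no effect) to 100 (complete control).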

[2] = test system: ragweed (common ragweed, Ambrosia elatior); experiment: Test A preemergence, visual plant response rating; conditions: for Ragweed plant response rating: 125 g ai/ha, preemergence, 0 to 100 scale, 0 no effect, 100 complete control; for Ragweed plant response rating (0 to 100 scale): 500 g ai/ha Preemergence, approx. 10 days
Summary of the method: as §1

[3] = test system: kochia (Kochia scoparia); experiment: Test A preemergence, visual plant response rating; conditions: for Kochia plant response rating: 125 g ai/ha, preemergence, 0 to 100 scale, 0 no effect, 100 complete control; for Kochia plant response rating (0 to 100 scale): 500 g ai/ha Preemergence, approx. 10 days
Summary of the method: as §1

[4] = test system: Italian ryegrass (Lolium multiflorum); experiment: Test A preemergence, visual plant response rating; conditions: for Ryegrass, Italian plant response rating: 125 g ai/ha, preemergence, 0 to 100 scale, 0 no effect, 100 complete control; for Ryegrass, Italian plant response rating (0 to 100 scale): 500 g ai/ha Preemergence, approx. 10 days
Summary of the method: as §1

[5] = test system: barnyardgrass (Echinochloa crus-galli); experiment: Test A preemergence, visual plant response rating; conditions: for Barnyardgrass plant response rating: 125 g ai/ha, preemergence, 0 to 100 scale, 0 no effect, 100 complete control; for Barnyardgrass plant response rating (0 to 100 scale): 500 g ai/ha Preemergence, approx. 10 days
Summary of the method: as §1

[6] = test system: pigweed (Amaranthus retroflexus); experiment: Test A preemergence, visual plant response rating; conditions: for Pigweed plant response rating: 125 g ai/ha, preemergence, 0 to 100 scale, 0 no effect, 100 complete control; for Pigweed plant response rating (0 to 100 scale): 500 g ai/ha Preemergence, approx. 10 days
Summary of the method: as §1

[7] = test system: ducksalad (Heteranhera limosa); experiment: Test B flooded paddy test, visual plant response rating; conditions: 250 g ai/ha, Flood, applied to paddy water, 2-leaf stage, evaluated after 13 to 15 days
Summary of the method: (§2)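 Rice, umbrella sedge, ducksalad and barnyardgrass grown to 2-leaf stage; pots flooded 3 cm above soil and compound applied directly to paddy water, depth maintained.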

[8] = test system: rice (Oryza sativa); experiment: as above; conditions: 250 g ai/ha, Flood, applied to paddy water, 2-leaf stage, evaluated after 13 to 15 days
Summary of the method: as §2

[9] = test system: sedge, umbrella (small-flower umbrella sedge, Cyperus difformis); experiment: as above; conditions: 250 g ai/ha, Flood, applied to paddy water, 2-leaf stage, evaluated after 13 to 15 days
Summary of the method: as §2

[10] = test system: barnyardgrass (Echinochloa crus-galli); experiment: as above; conditions: 250 g ai/ha, Flood, applied to paddy water, 2-leaf stage, evaluated after 13 to 15 days
Summary of the method: as §2

[11] = test system: foxtail, green (green foxtail, Setaria viridis); experiment: Test A postemergence, visual plant response rating; conditions: for Foxtail, Green plant response rating (0 to 100 scale): 500 g ai/ha, postemergence, 0 is no effect, 100 is complete control; for Foxtail, Green plant response rating: Postemergence, 125 g ai/ha, 0 to 100 scale (0 no effect, 100 complete control)
Summary of the method: as §1

[12] = test system: ragweed (common ragweed, Ambrosia elatior); experiment: Test A postemergence, visual plant response rating; conditions: for Ragweed plant response rating (0 to 100 scale): 500 g ai/ha, postemergence, 0 is no effect, 100 is complete control; for Ragweed plant response rating: Postemergence, 125 g ai/ha, 0 to 100 scale (0 no effect, 100 complete control)
Summary of the method: as §1

[13] = test system: corn (Zea mays); experiment: Test A postemergence, visual plant response rating; conditions: for Corn plant response rating (0 to 100 scale): 500 g ai/ha, postemergence, 0 is no effect, 100 is complete control; for Corn plant response rating: Postemergence, 125 g ai/ha, 0 to 100 scale (0 no effect, 100 complete control)
Summary of the method: as §1

[14] = test system: kochia (Kochia scoparia); experiment: Test A postemergence, visual plant response rating; conditions: for Kochia plant response rating (0 to 100 scale): 500 g ai/ha, postemergence, 0 is no effect, 100 is complete control; for Kochia plant response rating: Postemergence, 125 g ai/ha, 0 to 100 scale (0 no effect, 100 complete control)
Summary of the method: as §1

[15] = test system: Italian ryegrass (Lolium multiflorum); experiment: Test A postemergence, visual plant response rating
Summary of the method: as §1

[16] = test system: galium (catchweed bedstraw, Galium aparine); experiment: Test A postemergence, visual plant response rating; conditions: for Galium plant response rating (0 to 100 scale): 500 g ai/ha, postemergence, 0 is no effect, 100 is complete control; for Galium plant response rating: Postemergence, 125 g ai/ha, 0 to 100 scale (0 no effect, 100 complete control)
Summary of the method: as §1

[17] = test system: blackgrass (Alopecurus myosuroides); experiment: Test A postemergence, visual plant response rating; conditions: for Blackgrass plant response rating (0 to 100 scale): 500 g ai/ha, postemergence, 0 is no effect, 100 is complete control; for Blackgrass plant response rating: Postemergence, 125 g ai/ha, 0 to 100 scale (0 no effect, 100 complete control)
Summary of the method: as §1

[18] = test system: barnyardgrass (Echinochloa crus-galli); experiment: Test A postemergence, visual plant response rating; conditions: for Barnyardgrass plant response rating (0 to 100 scale): 500 g ai/ha, postemergence, 0 is no effect, 100 is complete control; for Barnyardgrass plant response rating: Postemergence, 125 g ai/ha, 0 to 100 scale (0 no effect, 100 complete control)
Summary of the method: as §1

[19] = test system: wheat (Triticum aestivum); experiment: Test A postemergence, visual plant response rating; conditions: for Wheat plant response rating: 0 to 100 scale (0 no effect, 100 complete control)
Summary of the method: as §1

[20] = test system: pigweed (Amaranthus retroflexus); experiment: Test A postemergence, visual plant response rating; conditions: for Pigweed plant response rating (0 to 100 scale): 500 g ai/ha, postemergence, 0 is no effect, 100 is complete control; for Pigweed plant response rating: Postemergence, 125 g ai/ha, 0 to 100 scale (0 no effect, 100 complete control)
Summary of the method: as §1

[21] = 500 g ai/ha, postemergence, 0 is no effect, 100 is complete control

Compound	Foxtail, Green plant response rating [1]	Foxtail, Green plant response rating (0 to 100 scale) [1]	Ragweed plant response rating [2]	Ragweed plant response rating (0 to 100 scale) [2]	Kochia plant response rating [3]	Kochia plant response rating (0 to 100 scale) [3]	Ryegrass, Italian plant response rating [4]	Ryegrass, Italian plant response rating (0 to 100 scale) [4]	Barnyardgrass plant response rating [5]	Barnyardgrass plant response rating (0 to 100 scale) [5]	Pigweed plant response rating [6]	Pigweed plant response rating (0 to 100 scale) [6]	Plant response rating, Ducksalad (0 to 100 scale, 0 is no effect, 100 is complete control) [7]	Plant response rating, Rice (0 to 100 scale, 0 is no effect, 100 is complete control) [8]	Plant response rating, Sedge, Umbrella (0 to 100 scale, 0 is no effect, 100 is complete control) [9]	Plant response rating, Barnyardgrass (0 to 100 scale, 0 is no effect, 100 is complete control) [10]	Foxtail, Green plant response rating (0 to 100 scale) [11]	Foxtail, Green plant response rating [11]	Ragweed plant response rating (0 to 100 scale) [12]	Ragweed plant response rating [12]	further results
CO/N=C(\c1cc(C)ccc1C)c1c(O)c(C)nn(C)c1=O [Compound 66]	30	60	20	50	0	20	30	50	0	20	30	80	0	0	0	0	20	0	50	40	Corn plant response rating (0 to 100 scale) [13]: 0; Corn plant response rating [13]: 0; Kochia plant response rating (0 to 100 scale) [14]: 40; Kochia plant response rating [14]: 20; Ryegrass, Italian plant response rating (0 to 100 scale) [15, 21]: 80; Ryegrass, Italian plant response rating ([15]; Postemergence, 125 g ai/ha, 0 to 100 scale (0 no effect, 100 complete control)): 30; Galium plant response rating (0 to 100 scale) [16]: 80; Galium plant response rating [16]: 60; Blackgrass plant response rating (0 to 100 scale) [17]: 50; Blackgrass plant response rating [17]: 0; Barnyardgrass plant response rating (0 to 100 scale) [18]: 30; Barnyardgrass plant response rating [18]: 10; Wheat plant response rating (0 to 100 scale) [19, 21]: 10; Wheat plant response rating ([19]; Postemergence, 125 g ai/ha): 0; Pigweed plant response rating (0 to 100 scale) [20]: 50; Pigweed plant response rating [20]: 50
CON=C(c1cccc(Cl)c1)c1c(O)c(C)n[nH]c1=O (mixture of isomers) [Compound 143]	30	80	0	0	0	10	20	50	0	30	0	0	0	0	0	0	40	20	0	0	Corn plant response rating (0 to 100 scale) [13]: 20; Corn plant response rating [13]: 0; Kochia plant response rating (0 to 100 scale) [14]: 20; Kochia plant response rating [14]: 0; Ryegrass, Italian plant response rating (0 to 100 scale) [15, 21]: 60; Ryegrass, Italian plant response rating (0 to 100 scale) ([15]; Postemergence, rate not given, approx. 10 days): 20; Galium plant response rating (0 to 100 scale) [16]: 0; Galium plant response rating [16]: 0; Blackgrass plant response rating (0 to 100 scale) [17]: 40; Blackgrass plant response rating [17]: 10; Barnyardgrass plant response rating (0 to 100 scale) [18]: 40; Barnyardgrass plant response rating [18]: 10; Wheat plant response rating ([19]; Postemergence, 500 g ai/ha): 20; Wheat plant response rating (0 to 100 scale) ([19]; Postemergence, approx. 10 days): 0; Pigweed plant response rating (0 to 100 scale) [20]: 20; Pigweed plant response rating [20]: 0
